Where a SMILES comes first, the peptide text is derived from it. Bridges are numbered along the chain shown (N, C = ends). [ ]: non-standard residue; d: D form. 2Nal = N[C@@H](Cc1ccc2ccccc2c1)C(=O)O; Cit = NC(=O)NCCC[C@H](N)C(=O)O; Gly(N(CH2)3NH2) = NCCCNCC(=O)O; Nlys = NCCCCNCC(=O)O

One series has as its target CCRF-CEM cells (Homo sapiens, UniProt P61073). To be noted: read-out: IC50 (μM) Cell migration assay; CCRF-CEM cells migrating to 1 nM SDF-1, 4 hours.
The nature of the next series: in vitro. Format: cell-based. As for the experimental part: The cytotoxicity of the peptides to HELA cells (Acc57) and COS-7 cells (CRL-1651) was determined using the MTl reduction assay [see ref. 6 and 7, below]. Briefly the method was as follows: HELA cells and COS-7 cells were seeded at 7.0·10^3 and, respectively, 4.5·10^3 cells per well and grown in 96-well microtiter plates for 24 hours at 37° C. at 5% CO2. At this point, time zero (Tz) was determined by MTT reduction (see below). The supernatant of the remaining wells was discarded and fresh medium and the peptides in serial dilutions of 12.5, 25 and 50 μM were pipeted into the wells. Each peptide concentration was assayed in triplicate. Incubation of the cells was continued for 48 hours at 37° C. at 5% CO2. Wells were then washed once with PBS and subsequently 100 μl MTT reagent (0.5 mg/mL in medium RPMI1640 and, respectively, DMEM) was added to the wells. This was incubated at 37° C. for 2 hours and subsequently the medium was aspirated and 100 μl isopropanol was added to each well. The absorbance at 595 nm of the solubilized product was measured (OD595peptide). For each concentration averages were calculated from triplicates. The percentage of growth was calculated as follows: (OD595peptide-OD595Tz-OD595Empty well)/(OD595Tz-OD595Empty well)×100% and was plotted for each peptide concentration.
The LC 50 values (Lethal Concentration, defined as the concentration that kills 50% of the cells) were determined for each peptide by using the trend line function of EXCEL (Microsoft Office 2000) for the concentrations (50, 25, 12.5 and 0 μM), the corresponding growth percentages and the value −50, (=TREND(C50:C0,%50:%0,−50))
All fine chemicals came from Merck (D)armstadt, Germany).

Series [1] concerns human red blood cells (hRBC). Format: cell-based. To be noted: red cells of human, 1 h. The method, then:
The peptides were tested for their hemolytic activity against human red blood cells (hRBC). Fresh hRBC were washed three times with phosphate buffered saline (PBS) by centrifugation for 10 min at 2000×g. Peptides at a concentration of 100 μM were incubated with 20% v/v hRBC for 1 hour at 37-C. The final erythrocyte concentration was approximately 0.9×10^9 cells per mL. A value of 0% resp. 100% cell lysis was determined by incubation of the hRBC in the presence of PBS alone and respectively 0.1% Triton X-100 in H2O. The samples were centrifuged and the supernatant was 20-fold diluted in PBS buffer and the optical density (OD) of the sample at […] was measured. The 100% lyses value (OD540H2O) gave an OD540 of approximately 1.3-1.8. Percent hemolysis was calculated as follows: (OD540peptide/OD540H2O)×100%.

CCRF-CEM cells, sequence (P61073 whole entry): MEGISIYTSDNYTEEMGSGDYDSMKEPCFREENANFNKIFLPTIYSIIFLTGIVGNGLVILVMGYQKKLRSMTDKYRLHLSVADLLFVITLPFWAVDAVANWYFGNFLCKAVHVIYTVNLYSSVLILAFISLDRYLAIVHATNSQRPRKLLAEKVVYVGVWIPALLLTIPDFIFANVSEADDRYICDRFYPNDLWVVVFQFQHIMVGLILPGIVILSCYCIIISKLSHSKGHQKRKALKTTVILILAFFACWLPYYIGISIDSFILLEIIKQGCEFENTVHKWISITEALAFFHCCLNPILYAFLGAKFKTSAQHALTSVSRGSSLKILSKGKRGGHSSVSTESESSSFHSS
Protocol for CCRF-CEM cells: BELA cells and CCRF-CEM cells were maintained in RPMI1640 plus 5% FBS, Pen/Strept and 2 mM L-Glutamine. […] All cell lines were grown at 37° C. at 5% CO2. Cell media, media supplements, PBS-buffer, HEPES, Pen/Strept., L-Glutamine and sera were purchased from Gibco (Pailsey, UK). All fine chemicals came from Merck (D)armstadt, Germany).
Chemotactic Assay (Cell Migration Assay)
The chemotactic response of CCRF-CEM cells to a gradient of stromal cell-derived factor 1 a (SDF-1) was measured using disposable assay plates from Neuroprobe (5 μ pore size) (Gaithersburg, Md.), according to the manufacturer's directions and references therein [especially ref. 8, below]. Briefly, one 175 cm^2 flask was washed once with Dubecco's phosphate buffered saline (DPBS), and trypsinized for 10 minutes or until cells had lifted. The trypsin was neutralized by the addition of fresh medium containing serum and the cells were pelleted, washed once in DPBS, and resuspended at 1-0.5×10^7 cells/ml in RPM!+0.5% bovine serum albumin (BSA). 451 μl of cell suspension were mixed with 5μ of 10-fold concentrated PEM peptide diluted in the same assay medium. 35 μl of this mixture were applied to the top of the assay filter. The cells were allowed to migrate (at 37°) into the bottom chamber of the assay plate containing 1 nM SDF-1. After 4 hours, the filter was removed and MTT was added to the migrated cells to a final concentration of 0.5 mg/ml, and incubated for a further 4 hours. After labeling with MTT, all medium was removed and 100 μl of isopropanol+10 mM HCl were added to the cells. The optical absorbance at 595 nm (ABS595) was read using a Tecan Genios plate reader with Magellan software. The number of cells migrated was determined by comparing ABS595 values against a standard curve generated with a known number of cells in the assay plate and were plotted against SDF-1 concentration to obtain a sigmoidal curve and to determine the IC50 values. The values for IC50 were determined using the Trendline function in Microsoft Excel by fitting a logarithmic curve to the averaged datapoints.

On to `N=C(N)NCCC[C@H](NC(=O)[C@@H]1CSSC[C@H](NC(=O)[C@H](Cc2ccc3ccccc3c2)NC(=O)[C@H](CCCNC(=N)N)NC(=O)CNCCCN)C(=O)N[C@@H](Cc2ccc(O)cc2)C(=O)N[C@@H](CCCNC(N)=O)C(=O)N[C@@H](CCCCN)C(=O)N2CCC[C@@H]2C(=O)N2CCC[C@H]2C(=O)N[C@@H](Cc2ccc(O)cc2)C(=O)N[C@@H](CCCNC(=N)N)C(=O)N[C@@H](CCCNC(N)=O)C(=O)N1)C(N)=O` [Example 15] (H-[Gly(N(CH2)3NH2)]R[2Nal]CY[Cit]K[dP]PYR[Cit]CR-NH2; disulfide 4-13), for which the IC50 on CCRF-CEM cells turned out to be 0.57 µM. As to `N=C(N)NCCC[C@H](NC(=O)[C@@H]1CSSC[C@H](NC(=O)[C@H](Cc2ccc3ccccc3c2)NC(=O)[C@H](CCCNC(=N)N)NC(=O)[C@@H](N)CCCNC(=N)N)C(=O)N[C@@H](Cc2ccc(O)cc2)C(=O)N[C@@H](CCCNC(N)=O)C(=O)N[C@@H](CCCCN)C(=O)N2CCC[C@@H]2C(=O)N2CCC[C@H]2C(=O)N[C@@H](Cc2ccc(O)cc2)C(=O)N[C@@H](CCCNC(=N)N)C(=O)N[C@@H](CCCNC(N)=O)C(=O)N1)C(N)=O` [Example 7] (H-RR[2Nal]CY[Cit]K[dP]PYR[Cit]CR-NH2; disulfide 4-13; N-terminus assumed), in the series “in vitro”, the CC50 (in general, the concentration giving 50% cytotoxicity) came out at 56000 nM. The “Hemolysis at 100 μM” value in series [1] came out at 0.3%. In addition, at CCRF-CEM cells, the IC50 came to 0.55 µM. For `N=C(N)NCCC[C@H](NC(=O)[C@@H]1CSSC[C@H](NC(=O)[C@H](Cc2ccc3ccccc3c2)NC(=O)[C@H](CCCNC(=N)N)NC(=O)CNCCCCN)C(=O)N[C@@H](Cc2ccc(O)cc2)C(=O)N[C@@H](CCCNC(N)=O)C(=O)N[C@@H](CCCCN)C(=O)N2CCC[C@@H]2C(=O)N2CCC[C@H]2C(=O)N[C@@H](Cc2ccc(O)cc2)C(=O)N[C@@H](CCCNC(=N)N)C(=O)N[C@@H](CCCNC(N)=O)C(=O)N1)C(N)=O` [Example 16] (H-[Nlys]R[2Nal]CY[Cit]K[dP]PYR[Cit]CR-NH2; disulfide 4-13), the IC50 at CCRF-CEM cells was 1.04 µM.

Source of the values: US7838496B2, “Template-fixed peptidomimetics as medicaments against HIV and cancer” (Polyphor AG/Ltd., priority 2003, dated 2010).
